Measurements taken from PubChem BioAssay (NCI).
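Where inhibition never reached the appropriate level, the endpoint shown equals the highest concentration tested. Otherwise, values were interpolated linearly from a five-concentration, 48-hour dose response in 96-well plates. TGI denotes the concentration required for complete inhibition of growth.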

How the values were obtained:
Test in all cases: growth of human tumour cells (NCI), 48 h
MCF7 breast = system: MCF7 breast
RXF 393 renal = system: RXF 393 renal
BT-549 breast = system: BT-549 breast
NCI-H460 lung = system: NCI-H460 lung
HCT-15 colon = system: HCT-15 colon
SK-MEL-5 melanoma = system: SK-MEL-5 melanoma
MDA-N = system: MDA-N
SNB-75 CNS = system: SNB-75 CNS
RPMI-8226 leukemia = system: RPMI-8226 leukemia
LOX IMVI melanoma = system: LOX IMVI melanoma
CAKI-1 renal = system: CAKI-1 renal

SMILES	TGI (MCF7 breast)	TGI (RXF 393 renal)	TGI (BT-549 breast)	TGI (NCI-H460 lung)	TGI (HCT-15 colon)	TGI (SK-MEL-5 melanoma)	TGI (MDA-N)	TGI (SNB-75 CNS)	TGI (RPMI-8226 leukemia)	TGI (LOX IMVI melanoma)	TGI (CAKI-1 renal)
Cc1cc(C)c(P2C(=C(O[Si](C(C)C)(C(C)C)C(C)C)C(C)(C)C)C2(c2ccccc2)c2ccccc2)c(C)c1 (stereo unspecified)	> 100 µM	> 100 µM	> 100 µM	> 100 µM	> 100 µM	> 100 µM	> 100 µM	> 100 µM	> 100 µM	> 100 µM	> 100 µM
Cc1ccc(C(=O)N/N=C(\N=Nc2cccc(Cl)c2)c2ccc(N(CCC#N)CCC#N)cc2C)cc1	> 100 µM	> 100 µM	> 100 µM	> 100 µM	> 100 µM	> 100 µM	> 100 µM	> 100 µM	> 100 µM	> 100 µM	> 100 µM
Cc1ccc(C(=O)O)c(CC2Cc3c(C)cccc3C2=O)c1 (stereo unspecified)	> 100 µM	> 100 µM	> 100 µM	> 100 µM	> 100 µM	> 100 µM	> 100 µM	> 100 µM	> 100 µM	> 100 µM	> 100 µM
CCOC(=O)c1c(CN2CCNCC2)nc2ccccc2c1-c1ccccc1	28.1 µM	13.8 µM	31.9 µM	28.4 µM	32.8 µM	28.5 µM	23.3 µM	20.5 µM	32.5 µM	31.6 µM	25.7 µM
COc1cc2nc(-c3ccc4ccccc4c3)[nH]c(=O)c2cc1OC	> 100 µM	> 100 µM	> 100 µM	> 100 µM	> 100 µM	> 100 µM	> 100 µM	58.3 µM	> 100 µM	> 100 µM	> 100 µM
Cc1ccc(C2=NOC(=O)[C@@H]3CCCC[C@@H]23)cc1	> 100 µM	> 100 µM	> 100 µM	–	> 100 µM	> 100 µM	> 100 µM	> 100 µM	> 100 µM	> 100 µM	> 100 µM
Clc1ccc(Cc2nc3ccccc3nc2-c2cccc(Br)c2)cc1	11.3 µM	6.26 µM	9.93 µM	42.2 µM	3.11 µM	27.5 µM	4.19 µM	35.7 µM	3.81 µM	3.73 µM	5.1 µM
CCOC(=O)C(NC(=O)N(C1=NCC(C)S1)C1CCCCC1)(OC)C(F)(F)F (stereo unspecified)	62.2 µM	45.5 µM	> 100 µM	> 100 µM	> 100 µM	66.8 µM	> 100 µM	75.1 µM	–	60.8 µM	> 100 µM
O=C1C=CC(=O)C(CNc2ccc(C(=O)OC34CC5CC(CC(C5)C3)C4)cc2)=C1	27.5 µM	4.51 µM	15.7 µM	32.9 µM	12.3 µM	16.7 µM	19.2 µM	18.1 µM	7.01 µM	15.2 µM	2.71 µM
CCc1c(Cc2cccc3ccccc23)n2c(nc1=O)SCC2OCCO (stereo unspecified)	> 100 µM	> 100 µM	> 100 µM	> 100 µM	> 100 µM	> 100 µM	> 100 µM	> 100 µM	94.4 µM	> 100 µM	> 100 µM
c1ccc(CCNCc2ccco2)nc1	> 100 µM	> 100 µM	> 100 µM	> 100 µM	> 100 µM	> 100 µM	> 100 µM	> 100 µM	> 67.9 µM	> 100 µM	> 100 µM
NC(=S)N/N=C\c1ccc(OCc2cccc(COc3ccc(/C=N/NC(N)=S)cc3)n2)cc1	> 100 µM	47.9 µM	12.2 µM	> 100 µM	> 100 µM	24.4 µM	> 100 µM	> 100 µM	> 100 µM	> 100 µM	> 100 µM
CC(=O)O[C@@H]1C[C@@]23C[C@@]24CC[C@H](OC2OCC(O)C(O)C2O)C(C)(C)[C@@H]4CC=C3[C@]2(C)C[C@@H]3OC4(C[C@@H](C)[C@@H]3[C@@]12C)OC(O)[C@@]1(C)O[C@@H]41 (stereo partly specified)	> 100 µM	37.1 µM	97.3 µM	66.9 µM	96.7 µM	42.7 µM	> 100 µM	58.7 µM	47.1 µM	57 µM	> 100 µM
